Experimental data reported in ChEMBL document CHEMBL1126379, “Pyrrole analogues of the pyrrolidinone moiety of the potassium channel activator cromakalim as relaxants of guinea pig trachealis” (Bioorg Med Chem Lett, 1992).
pIC50: −log10 of the molar value.

Assays:
[1] = organism: Cavia porcellus; test: Inhibition of tone in guinea pig trachealis; format: functional
[2] = organism: Cavia porcellus; test: Relaxant activity expressed as in vitro inhibition of tone in guinea pig trachealis; format: functional

Structure (SMILES)	pIC50 [2]	Intrinsic activity [1]
CC1OC2=C(c3cc(C#N)ccc3OC2(C)C)n2cccc21 (stereo not drawn)	5.86	0.8
CC1(C)Oc2ccc(C#N)cc2C2=C1OC(c1ccccc1)c1cccn12 (stereo not drawn)	< 5.70	0.21
CCc1cccn1C1=CC(C)(C)Oc2ccc(C#N)cc21	< 4.70	0.32
C/C(=C\C#N)N[C@@H]1c2cc(C#N)ccc2OC(C)(C)[C@H]1O	5.91	0.96
CC1(C)C=C(n2ccc(C#N)c2)c2cc(C#N)ccc2O1	5.62	0.89
CC1(C)Oc2ccc(C#N)cc2[C@H]2n3cccc3CO[C@]21O	4.98	0.85
CC1(C)C=C(n2cccc2[N+](=O)[O-])c2cc(C#N)ccc2O1	6.16	0.88
CC(=O)c1cccn1C1=CC(C)(C)Oc2ccc(C#N)cc21	< 4.70	0.22
CC1(C)Oc2ccc(C#N)cc2[C@@H](N2CCCC2=O)[C@@H]1O [CROMAKALIM]	–	0.89
CC1(C)C=C(n2cccc2)c2cc(C#N)ccc2O1	5.39	0.78
CC1(C)C=C(n2ccc([N+](=O)[O-])c2)c2cc(C#N)ccc2O1	5.99	0.79

More lines, main results first:

pIC50 [2]	Structure (SMILES)	Intrinsic activity [1]
5.54	CC(=O)N[C@@H]1c2cc(C#N)ccc2OC(C)(C)[C@H]1O	0.78
< 4.70	CC1(C)Oc2ccc(C#N)cc2[C@@H](n2cccc2)[C@@H]1O	0.19
7.10	CC1(C)Oc2ccc(C#N)cc2[C@H]2n3cccc3[C@@H](C(F)(F)F)O[C@]21O	0.96
6.43	CC1(C)Oc2ccc(C#N)cc2[C@@H](n2cccc2[N+](=O)[O-])[C@@H]1O	0.88
6.16	CC1(C)C=C(n2cccc2C(=O)C(F)(F)F)c2cc(C#N)ccc2O1	0.91
< 4.70	CC1(C)Oc2ccc(C#N)cc2[C@@H](n2cccc2C(=O)C(F)(F)F)[C@@H]1O	0.28
